According to patent US8466311B2, “Neuroprotective compositions and methods” (Sanford-Burnham Medical Research Institute, priority 2006, dated 2013):

What was measured:
ETS-binding site = test: Enhancer element luciferase reporter p3xETSluc; assay type: cell-based; settings: NEPP11 2 μM
Method: (§1) Because the E1 and E2 regions also contain other enhancer elements, we tested the effects of NEPP11 (2 μM) on the expression of luciferase activity derived from these elements, including the cAMP-responsive element (CRE; p3xCREluc), AP-1 binding site (p3xAP1luc), NF-κB binding site (p3xNF-κBluc), NFAT-binding site (p3xNFATluc), ETS-binding site (p3xETSluc), and MEF2-binding site (p3xMEF2luc).

HO-1 protein [1] = test: Induction of HO-1 protein in primary cortical cultures; assay type: cell-based, rat
Method: Immunoprecipitation, western blots, and immunofluorescence. These assays were performed as described (Gu et al., Science 297:1186-1190, 2002) by using the following antibodies: anti-HO-1 (SPA895, 1:1000, Santa Cruz Biotechnology), anti-Keap1 (1:100, Santa Cruz Biotechnology), or anti-actin (1:5,000, Oncogene Research Products, San Diego).
We reasoned that if, unlike other electrophiles (Kraft et al., J. Neurosci. 24:1101-1112, 2004), NEPPs accumulate predominantly in neurons, then HO-1 might be induced preferentially in this cell type. To check this possibility, we performed immunofluorescence studies with anti-HO-1 antibody after exposure to a potent NEPP compound. Cortical cultures (E17 and DIV14-21) treated with vehicle or NEPP11 (0.7 μM) were stained with anti-MAP-2 and anti-HO-1 and with Hoechst dye. In control cultures, non-neuronal cells expressed relatively more HO-1 at baseline than did neurons. […] To examine induction of HO-1 protein after exposure to NEPP, lysates (10 μg per lane) of primary cortical cultures treated with vehicle or NEPP11 for 24 h were probed with anti-HO-1 or anti-β-actin in immunoblots. […] The fold induction of HO-1 by NEPP11 was 2.2±0.25 (for 0.5 μM NEPP11) and 3.5±0.25 (for 1.0 μM NEPP11 as assessed by densitometry.
Cell Cultures, Transfection, and Glutathione (GSH) Measurement.

HO-1 protein [2] = test: HO-1 induction in mouse brain after i.p. injection; assay type: in vivo; settings: NEPP11 i.p. 12 h before killing
Method: To test the hypothesis that NEPP protection against brain ischemia is associated with HO-1 expression, we examined HO-1 induction by Western blotting and immunostaining. NEPP11 or vehicle was injected intraperitoneally (i.p.) 12 h before the animals were killed. Brain lysates (10 μg per lane) were extracted and subjected to Western blotting with anti-HO-1 and anti-β-actin antibody. For immunostaining, coronal sections of mouse brain were stained with anti-MAP-2 and anti-HO-1 antibodies.

NF-κB binding site = test: Enhancer element luciferase reporter p3xNF-κBluc; assay type: cell-based; settings: NEPP11 2 μM
Method: as §1

neural cells = test: Neuroprotection and toxicity of CA in vitro (summary statements); assay type: cell-based
Nrf2 = test: Intracellular distribution of Nrf2 protein in COS7 cells (immunofluorescence); assay type: cell-based; settings: 10 μM CA
Method: Immunocytochemistry. Cultures were fixed with 3% paraformaldehyde at room temperature for 20 min. After three washes in PBS, the cells were permeabilized with 0.3% Triton X-100 for 5 min. After three additional washes in PBS, the cells were incubated at 4° C. overnight with primary antibodies. They were then washed three times in PBS containing 0.2% Tween 20 (PBS-T), and next incubated with secondary antibodies for 1 h at room temperature. Thereafter, the cells were again washed, and their nuclei stained with Hoechst 33,258 (5 μg/ml) or with DAPI (1 μg/ml) for 5 min. Stained preparations were mounted and examined by epifluorescence microscopy. The following primary antibodies were used: anti-Nrf2 antibody, anti-MAP2 and anti-NeuN antibodies to identify neurons (dendrites and nuclei, respectively), and anti-S100β antibody to identify astrocytes. As secondary antibodies, we used FITC-conjugated anti-mouse IgG, rhodamine-conjugated anti-mouse IgG, or rhodamine-conjugated streptavidin.
After binding of the electrophilic quinone-form of CA to Keap1 protein, activation of the Keap1/Nrf2 pathway requires nuclear translocation of Nrf2 (Talalay, Biofactors 12:5-11, 2000; Padmanabham et al., Mol. Cell 21:689-700, 2006; Itoh et al., Free Radic. Biol. Med. 36:1208-1213, 2004). Thus, we next examined the intracellular distribution of Nrf2 protein in COS7 cells by immunofluorescence.

[3] = tested on: immature cortical neurons; test: Oxidative stress (glutamate or rotenone) in immature cortical cultures; assay type: cell-based, rat; settings: CA 3 μM
Text: Primary cortical cultures and assays for two types of glutamate toxicity. Cerebrocortical neurons have been used as an in vitro system in order to investigate the cellular mechanism of neuronal death caused by glutamate. The level of expression of functional NMDA receptors is key for determining whether excitotoxicity or oxidative glutamate toxicity predominates. With increasing days in vitro (DIV), the expression level of these receptors in cortical cultures increases. […] In light of this background information, in the present study, we prepared cerebrocortical cultures from embryonic day 17 (E17) Sprague-Dawley rats and examined them at DIV2 as an experimental system for oxidative glutamate toxicity (Murphy et al., FASEB J. 4:1624-1633, 1990; Lee et al., J. Biol. Chem. 278:37948-37956, 2003). Rotenone, a complex I inhibitor of the mitochondrial electron-transport chain, also induces oxidative stress in immature cortical cultures (Murphy et al., FASEB J. 4:1624-1633, 1990; Lee et al., J. Biol. Chem. 278:37948-37956, 2003).
CA protects cortical neurons via activation of the Keap1/Nrf2 pathway. […] Glutamate (2 mM) and rotenone (300 nM) decreased the number of MAP2 and NeuN-positive cells to 30.8±2.5% and 25.8±1.9% of the control value, respectively. In contrast, CA (3 μM) increased cell survival in the face of these insults to 73.8±3.7% and 80.4±3.4%, respectively.

Structure (SMILES) | activity of p3xETSluc (ETS-binding site) | fold induction of HO-1 (densitometry) (HO-1 protein [1]; 0.5 μM NEPP11, 24 h) [fold] | fold induction of HO-1 (densitometry) (HO-1 protein [1]; 1.0 μM NEPP11, 24 h) [fold] | HO-1 immunofluorescence (HO-1 protein [1]; NEPP11 0.7 μM, E17 DIV14-21) | level of HO-1 protein in the brain (HO-1 protein [2]) | p3xNF-κBluc expression (NF-κB binding site) | toxicity in vitro relative to NEPP11 (neural cells) | toxicity to neural cells (neural cells; 100 μM CA) | neuroprotective concentration (neural cells; as little as) | localization of Nrf2 protein (Nrf2) | cell survival (MAP2 and NeuN-positive cells), % of the control value ([3]; glutamate 2 mM, glutamate alone 30.8±2.5%) [%] | cell survival (MAP2 and NeuN-positive cells), % of the control value ([3]; rotenone 300 nM, rotenone alone 25.8±1.9%) [%]
COC(=O)CCCCC/C=C1/C(=O)C=C[C@H]1CCCCCCc1ccc(C)cc1 [NEPP11] | slightly depressed | 2.2±0.25 | 3.5±0.25 | increased mainly in neurons | increased | minimally activated |  |  |  |  |  | 
CC(C)c1cc2c(c(O)c1O)[C@@]1(C(=O)O)CCCC(C)(C)[C@@H]1CC2 [CA, carnosic acid] |  |  |  |  |  |  | less toxic than NEPP11 | not toxic | 1-3 | translocated into the nucleus | 73.8±3.7 | 80.4±3.4
